Source: US9610264B2, “Compounds for the treatment and prevention of retroviral infections” (KFLP Biotech, LLC, priority 2012, dated 2017)

How the values were obtained:
HIV-1-LAI strain = assay: Antiviral assay in PHA-P-activated PBMC, RT activity in supernatants; format: cell-based; conditions: day 7 RT activity
Experimental: Phytohemagglutinin (PHA)-P-activated PBMC were infected with the reference lymphotropic HIV-1-LAI strain (Wain-Hobson et al., Science, vol. 252, no. 5008, pp. 961-965 (1991)). This virus was amplified in vitro with PHA-P-activated blood mononuclear cells. Viral stocks were titrated using PHA-P-activated PBMC, and 50% tissue culture infectious doses (TCID50) was calculated using Karber's formula. PBMC were pretreated for 30 min by two concentrations of each molecule and infected with 125 TCID50 of this HIV-1 strain. AZT and T20 were used as reference anti-HIV molecule. Molecules were maintained throughout the culture, and cell supernatants were collected at day 7 post-infection and stored at −20° C. Viral replication was measured by quantifying reverse transcriptase (RT) activity in these cell culture supernatants using the Lenti RT activity kit (Cavidi). In parallel, cytotoxicity was evaluated on day 7 in uninfected PHA-P-activated PBMC using the colorimetric methyl-tetrazolium salt assay (MTS/PMS; Promega). Experiments were performed in triplicate and the inhibition of viral replication of the compounds was calculated using SoftMaxPro software (Molecular Devices Inc. CA, USA).
Dilutions in Cell Culture Medium Containing 0.1% DMSO (Final Concentration)

[1] = target: binding of HIV associated glycoprotein gp120 and the integrin α4β7 (Homo sapiens (Human), UniProt P13612+P26010); assay: ELISA assay of gp120 binding to integrin α4β7; set-up: species or system human (α4β7); HIV-1 ADA strain (gp120); conditions: inhibition of gp120/α4β7 binding, triplicate with two anti-gp120 antibodies, read-out: IC50 a4b7
Excerpt: A sandwich assay was developed to screen for compounds that inhibit the binding of a4b7 to gp120. Without inhibitors, gp120 and a4b7 bind and this complex can be identified by addition of a mouse anti-gp120 mAb (step 3). This a4b7*gp120anti-gp120 mAb complex is then sequestered on the bottom surface of a 96 welled-plate coated with an anti-mouse secondary mAb (step 4). The complex is then detected by addition of a biotinylated primary mAb against a4b7 (step 5) and detected using an HRP-avidin (step 6). A positive binding event is identified by the presence of HPR activity within each well. The addition of an inhibitor (step 2) blocks the binding between gp120 and a4b7 leading to a lack or reduction of HRP activity as shown in steps 2-5 at the bottom of the figure.
Step 1: Prepare the antigen plate • a. Prepare a PBS stock solution containing 1 μM gp120 and 1 μM α4β7 • b. Add a 200 μL aliquot to each well of the antigen plate.
Step 2: Add the inhibitor. • a. Add 20 μL of a 10× stock of the inhibitor in PBS pH 7.2 containing 1% DMSO • b. Incubate at 4° C. for 6 h with shaking. This delivers the antigen plate.
Step 3: Prepare the binding plate. • a. Aspirate each well of the binding plate • b. Wash three times with 200 μL of wash buffer (PBS pH 7.2, containing 0.05% Tween 20). • c. Add 100 μL of a 0.5 μg/mL stock of the mouse anti-gp120 mAb in PBS pH 7.2 • d. Shake for 1 h at 23° C.
Step 4: Sequester the gp120*α4β7 complex. • a. Aspirate each well of the binding plate. • b. Wash three times with 200 μL of wash buffer. • c. Transfer the contents of the antigen plate to the corresponding wells in the binding plate. • d. Shake for 1 h at 23° C.
Step 5: Develop the binding plate. • a. Aspirate each well of the binding plate. • b. Wash three times with 200 μL of wash buffer. • c. Add 100 μL of a 0.1 μg/mL of the rat anti-α4β7 mAb. • d. Shake for 1 h at 37° C. • e. Aspirate each well of the binding plate. • f. Wash three times with 200 μL of wash buffer. • g. Add 100 μL of 0.2 μg/mL solution of the HRP-conjugated strepavidin • h. Shake for 1 h at 37° C. • i. Aspirate each well of the binding plate. • j. Wash three times with 200 μL of wash buffer. • k. Develop using QuantaBlu fluorogenic peroxidase substrate (ThermoScientific) • l. Evaluate the fluorescence output on a HTS7000 plate reader (Perkin Elmer).
The ELISA assay was applied to screen the compounds in the table, below, to further characterize their activity against the binding of HIV associated glycoprotein gp120 and the integrin α4β7.
The five-step assay developed was applied to screen the compounds in the table below. […] The experiments were run in triplicate using two antibodies against gp120.

[2] = test system: HIV-1 R9 (CXCR4-tropic strain); assay: Infectivity assay in HeLa reporter cell line (HeLa-CD4-Bgal); format: cell-based; conditions: HeLa reporter cells, HIV-1 R9, 36 h
Experimental: FIG. 2: Experimental outline to evaluate HIV infectivity in a HeLa reporter cell line HIV-1 particles are produced in 293T cells transfected with R9 HIV DNA in the absence of test compounds. Particles are collected, titrated by measuring the amount of p24 antigen and frozen until their use. In the infectivity assay HeLa-CD4-Bgal cells are preincubated for 20 min in the absence or presence of test compounds, and the viral particles are added. Infectivity is monitored with a beta-galactosidase enzymatic reaction 36 hours after infection. Test compounds and virus are left with the cells throughout the entire infection period.
Compounds were evaluated with a HeLa reporter cell line containing the bacterial b-galactosidase gene inserted in the cell chromosome under control of the viral LTR. […] HIV-1 R9 (CXCR4-tropic strain) was used in these experiments to challenge cells. Viruses were first produced by transfection of 293T cells with a plasmid DNA expressing HIV-1. Viral particles were harvested and frozen until use. Infectivity assays were performed incubating cells in the absence or presence of compounds for 20 min before addition of virus. Upon infection, virus and compounds were left with the cells for the entire period of infection (36 h). At that time the extent of infection was evaluated using a luminescent substrate of Bgal. FIG. 2 depicts the experimental outline used to evaluate the anti-HIV activity of lead compounds. Controls with known ARVs include AZT, a reverse-transcriptase inhibitor (RTI), and the HIV integrase inhibitor raltegravir. Controls with vehicle alone are also included

Sequence of binding of HIV associated glycoprotein gp120 and the integrin α4β7 (P13612 whole entry, looked up): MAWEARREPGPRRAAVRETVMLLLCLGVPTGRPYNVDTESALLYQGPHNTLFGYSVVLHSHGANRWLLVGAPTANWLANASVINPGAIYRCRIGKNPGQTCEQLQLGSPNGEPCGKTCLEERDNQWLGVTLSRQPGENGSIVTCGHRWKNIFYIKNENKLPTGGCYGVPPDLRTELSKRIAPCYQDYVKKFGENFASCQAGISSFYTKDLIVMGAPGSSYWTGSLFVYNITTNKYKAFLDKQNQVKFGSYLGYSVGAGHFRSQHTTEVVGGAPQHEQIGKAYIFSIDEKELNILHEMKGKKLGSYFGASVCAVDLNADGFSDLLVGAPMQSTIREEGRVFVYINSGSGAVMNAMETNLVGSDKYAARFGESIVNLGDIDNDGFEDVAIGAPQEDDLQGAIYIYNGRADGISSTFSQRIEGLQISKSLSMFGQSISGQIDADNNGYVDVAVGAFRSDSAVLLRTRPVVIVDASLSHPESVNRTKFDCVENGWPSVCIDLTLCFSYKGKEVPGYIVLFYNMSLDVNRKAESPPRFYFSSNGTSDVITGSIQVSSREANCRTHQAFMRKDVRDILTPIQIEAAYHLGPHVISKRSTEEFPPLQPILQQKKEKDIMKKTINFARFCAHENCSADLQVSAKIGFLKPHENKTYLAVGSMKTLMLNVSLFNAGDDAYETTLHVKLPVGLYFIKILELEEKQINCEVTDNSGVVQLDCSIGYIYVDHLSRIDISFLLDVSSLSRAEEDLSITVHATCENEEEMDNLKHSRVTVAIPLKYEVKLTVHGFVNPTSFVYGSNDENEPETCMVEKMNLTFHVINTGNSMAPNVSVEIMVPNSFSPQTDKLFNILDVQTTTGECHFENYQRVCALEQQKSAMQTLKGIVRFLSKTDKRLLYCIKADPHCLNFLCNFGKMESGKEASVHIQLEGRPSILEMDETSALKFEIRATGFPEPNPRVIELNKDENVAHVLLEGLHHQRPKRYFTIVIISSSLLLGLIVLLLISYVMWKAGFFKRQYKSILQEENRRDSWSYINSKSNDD
Sequence of binding of HIV associated glycoprotein gp120 and the integrin α4β7 (P26010 whole entry, looked up): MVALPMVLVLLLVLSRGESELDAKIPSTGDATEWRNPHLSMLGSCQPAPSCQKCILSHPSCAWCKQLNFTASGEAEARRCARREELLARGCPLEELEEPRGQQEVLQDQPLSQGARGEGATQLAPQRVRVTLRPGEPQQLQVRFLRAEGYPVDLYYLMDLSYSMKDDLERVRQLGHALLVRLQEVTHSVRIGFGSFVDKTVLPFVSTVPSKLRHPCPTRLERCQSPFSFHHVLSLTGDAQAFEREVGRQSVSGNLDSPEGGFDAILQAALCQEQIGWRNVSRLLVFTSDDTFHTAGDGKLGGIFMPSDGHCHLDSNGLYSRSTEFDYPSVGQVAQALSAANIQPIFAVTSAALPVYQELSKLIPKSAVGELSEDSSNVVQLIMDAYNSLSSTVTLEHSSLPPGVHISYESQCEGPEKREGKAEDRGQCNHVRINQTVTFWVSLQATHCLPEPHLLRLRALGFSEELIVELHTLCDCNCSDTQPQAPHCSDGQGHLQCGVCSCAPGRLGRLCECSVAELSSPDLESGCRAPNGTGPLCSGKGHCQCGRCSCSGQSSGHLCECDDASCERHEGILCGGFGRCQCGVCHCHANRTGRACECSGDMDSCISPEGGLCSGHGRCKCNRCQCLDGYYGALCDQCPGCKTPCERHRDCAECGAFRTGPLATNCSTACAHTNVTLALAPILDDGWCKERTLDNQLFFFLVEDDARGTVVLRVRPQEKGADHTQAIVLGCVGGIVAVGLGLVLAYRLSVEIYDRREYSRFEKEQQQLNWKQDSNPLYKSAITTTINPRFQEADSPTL

enfuvirtide
inhibition of viral replication (HIV-1-LAI strain; 0.32 nM): −9% ± 3
inhibition of viral replication (HIV-1-LAI strain; 1.6 nM): 5% ± 15
inhibition of viral replication (HIV-1-LAI strain; 8 nM): −13% ± 4
inhibition of viral replication (HIV-1-LAI strain; 40 nM): 100% ± 0
inhibition of viral replication (HIV-1-LAI strain; 200 nM): 100% ± 0
inhibition of viral replication (HIV-1-LAI strain; 1000 nM): 100% ± 0
ED50 (HIV-1-LAI strain): 28.9 nM
ED70 (HIV-1-LAI strain): 30 nM
ED90 (HIV-1-LAI strain): 31.7 nM

O=C(Nc1ccccc1C(=O)NCc1ccccc1)c1cccc([N+](=O)[O-])c1 [Compound 10]
IC50 [1]: 1.53 nM

O=C(CCc1ccccc1)Nc1ccccc1C(=O)NCc1ccccc1 [Compound 1]
IC50 [1]: 0.33 nM

Cc1cn([C@H]2C[C@H](N=[N+]=[N-])[C@@H](CO)O2)c(=O)[nH]c1=O [AZT, Zidovudine]
inhibition at 0.00032 µM (HIV-1-LAI strain; Human immunodeficiency virus 1, 168 h, 0.32 nM, read-out: inhibition of viral replication): 16%
inhibition at 0.0016 µM (HIV-1-LAI strain; Human immunodeficiency virus 1, 168 h, 1.6 nM, read-out: inhibition of viral replication): 59%
inhibition at 0.008 µM (HIV-1-LAI strain; Human immunodeficiency virus 1, 168 h, 8 nM, read-out: inhibition of viral replication): 95%
inhibition at 0.04 µM (HIV-1-LAI strain; Human immunodeficiency virus 1, 168 h, 40 nM, read-out: inhibition of viral replication): 100%
inhibition at 0.2 µM (HIV-1-LAI strain; Human immunodeficiency virus 1, 168 h, 200 nM, read-out: inhibition of viral replication): 100%
inhibition at 1 µM (HIV-1-LAI strain; Human immunodeficiency virus 1, 168 h, 1000 nM, read-out: inhibition of viral replication): 100%
ED50 (HIV-1-LAI strain): 1.3 nM
ED70 (HIV-1-LAI strain): 2.5 nM
ED90 (HIV-1-LAI strain): 6.6 nM

CC(NC(=O)c1ccccc1NC(=O)CN1CCc2ccccc21)c1ccccc1 (stereo not drawn) [Compound 13]
IC50 [1]: 2.45 nM

CC(NC(=O)c1ccccc1NC(=O)CN1C(=O)NC(Cc2ccccc2)C1=O)c1ccccc1 (stereo not drawn) [Compound 15]
IC50 [1]: 2.8 nM

CCC(=O)Nc1cccc(C(=O)Nc2ccccc2C(=O)NCc2ccc(C)cc2)c1 [Compound 12]
IC50 [1]: 2.19 nM

CC(NC(=O)c1ccccc1NC(=O)CN1C(=O)C(=O)N(Cc2ccccc2)C1=O)c1ccccc1 (stereo not drawn) [Compound 5]
IC50 [1]: 0.64 nM

O=C(Cc1ccc(F)cc1)Nc1ccccc1C(=O)NCc1ccccc1 [Compound 2]
IC50 [1]: 0.89 nM
inhibition of viral replication (HIV-1-LAI strain; 3.2 nM): 16% ± 4^
inhibition of viral replication (HIV-1-LAI strain; 16 nM): −6% ± 22^
inhibition of viral replication (HIV-1-LAI strain; 80 nM): 4% ± 8
inhibition of viral replication (HIV-1-LAI strain; 400 nM): 6% ± 16
inhibition of viral replication (HIV-1-LAI strain; 2000 nM): 22% ± 3^
inhibition of viral replication (HIV-1-LAI strain; 10000 nM): 87% ± 9^
ED50 (HIV-1-LAI strain): 5590 ± 441 nM
ED70 (HIV-1-LAI strain): 8021 ± 710 nM
ED90 (HIV-1-LAI strain): 9826 ± 246 nM
Inhibition of HIV infectivity in % ([2]; 0.008 μM): 69.28%
Inhibition of HIV infectivity in % ([2]; 0.04 μM): 51.94%
Inhibition of HIV infectivity in % ([2]; 0.2 μM): 62.3%
Inhibition of HIV infectivity in % ([2]; 1 μM): 60.66%
Inhibition of HIV infectivity in % ([2]; 5 μM): 13.81%
Inhibition of HIV infectivity in % ([2]; 25 μM): 2.76%
Inhibition of HIV infectivity in % ([2]; 125 μM): 4.1%
EC50 [2]: 3400 nM
EC90 [2]: 30.6 µM

Cc1ccc(CNC(=O)c2ccccc2NC(=O)CN2CCN(C(C)C(=O)NC3CC3)CC2)cc1 (stereo not drawn) [Compound 6]
IC50 [1]: 0.61 nM

O=C(CN1CCN(Cc2ccsc2)CC1)Nc1ccccc1C(=O)NCc1ccccc1 [Compound 4]
IC50 [1]: 0.27 nM

Cc1ccc(CNC(=O)c2ccccc2NC(=O)CN2CCc3ccccc32)cc1 [Compound 3]
IC50 [1]: 19.2 nM
Inhibition of HIV infectivity in % ([2]; 0.008 μM): 67.64%
Inhibition of HIV infectivity in % ([2]; 0.04 μM): 58.63%
Inhibition of HIV infectivity in % ([2]; 0.2 μM): 61.6%
Inhibition of HIV infectivity in % ([2]; 1 μM): 42.22%
Inhibition of HIV infectivity in % ([2]; 5 μM): 12.81%
Inhibition of HIV infectivity in % ([2]; 25 μM): 2.39%
Inhibition of HIV infectivity in % ([2]; 125 μM): 0.19%
EC50 [2]: 1690 nM
EC90 [2]: 15.2 µM

CC1(c2ccc(F)cc2)NC(=O)N(CC(=O)Nc2ccccc2C(=O)NCc2ccccc2)C1=O (stereo not drawn) [Compound 7]
IC50 [1]: 0.46 nM

CC1CCCCN1CC(=O)Nc1ccccc1C(=O)NCc1ccccc1 (stereo not drawn) [Compound 9]
IC50 [1]: 1.23 nM
